The values below come from patent US20030144360A1, “Composition and method for modulating BAR/FXR receptor activity” (Allergan Sales, Inc., priority 2001, published 2003).

One series addresses T1, GAL-L-hRXRa (Homo sapiens, UniProt P19793).
T1 sequence (P19793 203-462): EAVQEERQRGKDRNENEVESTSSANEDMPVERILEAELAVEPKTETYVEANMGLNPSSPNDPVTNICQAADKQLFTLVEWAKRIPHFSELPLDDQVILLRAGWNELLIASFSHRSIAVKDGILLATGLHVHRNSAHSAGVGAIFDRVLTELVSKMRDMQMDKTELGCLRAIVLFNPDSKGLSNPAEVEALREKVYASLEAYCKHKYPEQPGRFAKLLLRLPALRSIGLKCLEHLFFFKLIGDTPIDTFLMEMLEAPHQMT
The series can be described thus: Co-transfection luciferase assay, MH100 × 4 reporter, GAL-L-hRXRa alone. To be noted: 50 μM CDCA.

The next series addresses T2, BAR-RXRα complex (UniProt P19793+Q62735).
T2 sequence (Q62735 1-469): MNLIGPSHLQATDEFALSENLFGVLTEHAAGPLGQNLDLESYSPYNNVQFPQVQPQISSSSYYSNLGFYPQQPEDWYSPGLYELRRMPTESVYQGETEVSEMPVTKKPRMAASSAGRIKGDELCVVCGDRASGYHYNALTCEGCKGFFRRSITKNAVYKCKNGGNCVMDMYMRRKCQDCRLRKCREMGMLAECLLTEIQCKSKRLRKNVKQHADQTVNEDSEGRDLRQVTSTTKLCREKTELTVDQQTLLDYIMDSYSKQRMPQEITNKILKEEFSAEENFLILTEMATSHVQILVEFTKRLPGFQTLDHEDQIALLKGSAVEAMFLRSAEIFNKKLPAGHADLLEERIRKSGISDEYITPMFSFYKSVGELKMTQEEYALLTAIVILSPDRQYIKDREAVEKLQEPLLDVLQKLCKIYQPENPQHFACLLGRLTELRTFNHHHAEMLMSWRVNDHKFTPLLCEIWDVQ
T2 sequence (P19793 1-462): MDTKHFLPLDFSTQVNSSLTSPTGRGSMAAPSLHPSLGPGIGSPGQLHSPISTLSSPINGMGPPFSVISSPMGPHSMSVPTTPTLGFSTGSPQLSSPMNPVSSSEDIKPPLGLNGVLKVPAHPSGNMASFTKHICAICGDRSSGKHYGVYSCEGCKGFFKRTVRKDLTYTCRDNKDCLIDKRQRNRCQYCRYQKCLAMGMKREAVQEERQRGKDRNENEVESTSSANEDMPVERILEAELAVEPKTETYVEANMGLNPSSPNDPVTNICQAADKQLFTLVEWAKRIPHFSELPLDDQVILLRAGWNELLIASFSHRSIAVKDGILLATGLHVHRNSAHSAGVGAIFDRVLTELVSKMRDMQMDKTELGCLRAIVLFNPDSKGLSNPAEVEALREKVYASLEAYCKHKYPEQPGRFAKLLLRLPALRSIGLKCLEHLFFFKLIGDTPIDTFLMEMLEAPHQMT
To be noted: cited from earlier work.

Series [1] deals with other nuclear hormone receptors. Particulars: cited from earlier work.
Series [2] concerns the target BAR/FXR:RXR heterodimer (CV-1 cells) (/ Homo sapiens, UniProt Q62735;P19793 SEQ:1-469,SEQ:1-462). The series is described as follows: cell_activity; CV-1, 100 uM CDCA; text gives IBABP IR-1 reporter, FIG. 1A legend gives EcREx6. Particulars: label: 32P (gel shift).

Method for GAL-L-hRXRa: CV-1 African Green Monkey cells were grown in Dulbecco's Modified Eagle's medium supplemented with 10% resin-charcoal stripped fetal bovine serum (FBS), 50 U/ml penicillin G and 50 μg/ml streptomycin sulfate (DMEM-FBS) at 37° C. in 5% CO2. One day prior to transfection, cells were plated to 50-80% confluence using phenol red-free DMEM-FBS. Cells were transiently transfected by lipofection as described in Forman et al., 81 Cell 687 (1995). Liposomes (N-[1-(2,3-dioleoyloxy)propyl]-N,N,N-ammonium methyl sulfate, sold by Boehringer Mannheim under the name DOTAP) were formed according to the manufacturer's instructions. The liposomes contained reporter gene constructs (300 ng/10^5 cells); cytomegalovirus driven expression vectors (25 ng/10^5 cells) were added as indicated along with CMX-Bgal (500 ng/10^5 cells) as an internal control. After 2 hours the liposomes were removed and replaced with fresh media. Cells were incubated for approximately 40 hours with phenol red-free DMEM-FBS containing the indicated compounds. After exposure to the specified ligand, the cells were harvested.
The harvested cells were assayed for the presence of luciferase activity. Cells were lysed in 0.1 M KPO4 (pH 7.8), 1.0% TRITON® X-100, 1.0 mM dithiolthreitol (DTT) and 2 mM ethylenediamine tetracetic acid (EDTA). Luciferase activity was measured by reaction of the cell lysates with luciferin in a reaction buffer comprising: 20 mM tricine, 1.07 mM Mg(CO3)4-Mg(OH)2-5H2O, 2.67 mM MgSO4.7H2O, 0.1 mM EDTA, 0.5 mM Sodium luciferin, 0.15 mg/ml Coenzyme A, 5 mM DTT, and 0.5 mM adenosine triphosphate (ATP). Resulting chemiluminescence was measured in a luminometer. […] All points were assayed in triplicate and varied by less than 15%. Each experiment was repeated three or more times with similar results.
As shown below, in most cases hRXRop was recombinantly coexpressed with one other of the indicated receptor constructs, so as to permit the formation of hetero-or homodimers containing hRXRop.
Expression of the luciferase reporter gene product was detected and quantified as described above.

As to `C[C@H](CCC(=O)O)[C@H]1CC[C@H]2[C@@H]3[C@H](O)C[C@@H]4C[C@H](O)CC[C@]4(C)[C@H]3CC[C@]12C` [CDCA, chenodeoxycholic acid, reference compound], on GAL-L-hRXRa, the “Reporter Activity” value was determined as 0.38.
Regarding `COC(=O)/C=C(\C)CC/C=C(\C)CC[C@H]1OC1(C)C` [JH III, juvenile hormone III], the “activation of the BAR-RXR complex” value on BAR-RXRα complex is given as “activated”. Besides, the “activation of BAR/FXR or RXR alone” value on BAR-RXRα complex (either receptor alone) is listed as “does not activate”. Also, the “activation of other nuclear hormone receptors” value in series [1] was “failed to activate”.
Turning to `CC(C)CCC[C@@H](C)[C@H]1CC[C@H]2[C@@H]3CC=C4C[C@@H](O)CC[C@]4(C)[C@H]3CC[C@]12C` [cholesterol], the “activation of the BAR-RXR complex” value on BAR-RXRα complex is reported as “did not activate”.
For `CC(C)=CCCC(C)=CCCC(C)=CC=O` [farnesal], the “activation of the BAR-RXR complex” value at BAR-RXRα complex is given as “somewhat less strongly”.
As for `CC(C)=CCCC(C)=CCCC(C)=CC(=O)O` [farnesoic acid], the “activation of the BAR-RXR complex” value on BAR-RXRα complex was “somewhat less strongly”.
`CC(C)=CCC/C(C)=C/CO` [geraniol]: at BAR-RXRα complex, the “activation of the BAR-RXR complex” value is reported as “did not activate”.
With `CC(C)=CCC/C(C)=C/CC/C(C)=C/CC/C(C)=C/CO` [geranylgeraniol], the “activation of the BAR-RXR complex” value on BAR-RXRα complex is listed as “somewhat less strongly”.
As to `CC(C)=CCC/C(C)=C/CC/C(C)=C/CC/C=C(\C)CC/C=C(\C)CCC=C(C)C` [squalene], the “activation of the BAR-RXR complex” value on BAR-RXRα complex is “did not activate”.

B1: IBABP IR-1 BAR/FXR response element (dsDNA)
DNA 1: CCTTAAGGTGAATAACCTTGGGGCTCC
DNA 2: GGAGCCCCAAGGTTATTCACCTTAAGG
As to B1, the activity in series [2] is approximately 200 fold activation.
